Consider two molecules from patent publication US9688620B2, “Methods for treating fibromyalgia syndrome” (SK Biopharmaceuticals Co., Ltd., priority 2009, dated 2017).

The subject of data set [1] is hypocretin cell ablated narcoleptic mice (prepororexin/ataxin-3 transgenic). Description: Sleep parameters (EEG/EMG polygraph) in narcoleptic mice. The class given is in vivo. The conditions noted are these: for wake-promoting effects (magnitude): active (dark) period; for wakefulness (dose dependence): active period (dosed PO at ZT 14); for wake-promoting effects: resting period (dosed PO at ZT 2); for duration of continuous wakefulness: most narcoleptic mice. The text has this:
(§1) The polygraph signal (EEG and EMG) was captured with SleepSign (Kissel Comtech), and the sleep stage was visually scored with 10 sec epoch for wakefulness, non-REM sleep and REM sleep. Scoring criteria are: Wakefulness is characterized by desynchronized low-amplitude, mixed frequency (>4 Hz) EEG and high EMG activity. Rhythmic alpha (8-9 Hz) wave (with high EMG activities) may also appear. Non-REM is characterized by synchronized, high-amplitude, low-frequency (0.25-4 Hz) with reduced EMG activity (compared to wakefulness). EEG activity in REM sleep is similar to that in wakefulness, with desynchronized, mixed frequency low amplitude waves. Rhythmic alpha (8-9 Hz) wave with reduced EMG activities may also appear. […] activity during REM sleep is reduced even further and in many cases, completely absent. Some muscle twitching may be apparent in the EMG trace during REM sleep.
(§2) Three drug doses of the test compound (50, 100 and 150 mg/kg PO) plus vehicle, was orally administered at ZT 2 (2 hours after light on) or ZT 14 (2 hours after light off), and the effects on sleep was monitored for 6 hours after the drug administration (the sleep data was collected for 30 hours after the drug injection, and are available for further analysis). The doses for modafinil were 50 and 200 mg/kg PO (plus vehicle), and modafinil was also administered at ZT 2 and ZT14.
(§3) If the polygraph signals of some mice were not sufficient to score the sleep stage with accuracy (especially bad EMG), data from these animals were excluded, and the minimum of 5 animals (except for the highest dose of the test compound in wild-type mice in dark period, n=4) were included for the data analysis and number of animals were indicated in the figures.
(§4) Effects of test compound and modafinil on the amount of wake, non-REM sleep, REM sleep (cumulative seconds), number of episodes for each sleep stage during 6 hours, mean wake/sleep-bout lengths (seconds) were analyzed in each animal and the mean of each parameter was calculated in each genotype. The effects of compounds on wake and sleep amounts are useful to evaluate the wake promoting potency, and the number of episodes for each sleep stage and the mean wake/sleep bout length are parameters for evaluating the sleep fragmentation. Amphetamine and modafinil, two main wake-promoting compounds currently used for the treatment of EDS associated with various etiologies (narcolepsy, idiopathic hypersomnia and secondary EDS), are known to increase wake time and prolong wake bout length in normal and EDS conditions.
(§5) A comparison of the effects between hypocretin deficient and wild-type mice is very useful in determining if the wake-promotion of the test compound is dependent on the availability of hypocretins, and if there is a possible change in the sensitivity of the receptive mechanisms of test compound in narcoleptic mice due to the hypocretin ligand deficiency.

Data set [2] has as its system littermate wild-type mice. The experiment in a line: Sleep parameters (EEG/EMG polygraph) in littermate wild-type mice. The settings on record: for wake-promoting effects: resting period (dosed PO at ZT 2); for duration of continuous wakefulness: most wild-type mice. The format is in vivo.
Source text: as §1, §2, §3, §4, §5

In data set [3] the test system is rats with sciatic nerve ligation. Description: Thermal hyperalgesia (hindpaw withdrawal latency, plantar tester) in rats with sciatic nerve ligation. The format is in vivo, Sprague-Dawley rats. The conditions noted are these: 30 mg/kg IP; for mean paw withdrawal latency: n = 6. On the procedure: Young adult male Sprague-Dawley rats (CD(SD)IGS, 150-200 g) were initially anesthetized with isoflurane in O2 by a mask and the surgical procedure was performed according to the method described by Bennett and Xie (1988). Briefly, the right sciatic nerves were loosely tied using ligatures. All experiments were conducted in accordance with the guidelines of the International Association for the Study of Pain. The behavioral tests were conducted at least 14 days postoperatively.
The test compound was dissolved in saline and administered intraperitoneally at 30 mg/kg to animals in a volume of 3 mL/kg body weight.
To test for thermal hyperalgesia, the thermal response was determined by the hindpaw withdrawal latency, using a plantar tester (UGO BASILE, Italy), and a modified method of Hargreaves et al. (1988). Rats were allowed to acclimate within plastic enclosures on a clear glass plate maintained at room temperature. A radiant heat source (intensity 90) was controlled with a timer and focused onto the plantar surface of the rat right hind paw encompassing the glabrous skin. Paw withdrawal stopped both heat source and timer. A maximal cut-off 30 sec was used to prevent tissue damage. Rats were assessed for thermal hyperalgesia predose (0 hr) and at 1, 4 and 8 hours after 30 mg/kg test compound administration.
Data are expressed as mean±standard error of mean (SEM). The values of behavioral signs of neuropathic pain at various postoperative time points were compared with those of the preoperative control period by a repeated-measure One-way Analysis of Variance (followed by Dunnett's post-hoc test). P-values less than 0.05 were considered to be significant.

The test system of another data set is Male CD-1 mice. The experiment in a line: Forced swimming test in mice. The format is in vivo. The conditions noted are these: for mean duration of immobility: mice. As for the experimental part: (§6) Male CD-1 mice (16-24 g) and male Wistar rats (90-125 g) were utilized in these experiments. The test compound (10, 15 and 30 mg/kg) was dissolved in physiological saline (0.9%) and administered orally PO in a volume of 1 mL/100 g body weight.
(§7) Mice and rats were placed in glass cylinders (1000 ml beakers; height 14 cm, diameter 11.5 cm) and (4000 ml beakers; height 24.5 cm, diameter 18.0 cm) respectively, containing water (25 degrees Celsius) up to a height of 9.0 cm for mice and 19.0 for rats. […] Immobility was defined as lack of movement, such as floating in the water with little or no movement of hind legs. Duration of immobility was timed with a stopwatch and recorded. In some experiments, mice or rats were allowed to swim for 6 or 10 minutes, respectively, one day prior to the forced swimming experiment.
(§8) In the single dose test, mice or rats were given test compound or 0.9% NaCl and placed in glass cylinders 1 hour or 4 hours post-treatment, respectively. In the multiple dose experiments, mice were dosed twice a day for 3 days and given an additional dose on Day 4. In addition, the mice were placed in the glass cylinders containing water at 25 degrees Celsius and allowed to swim for six minutes on Day 3. Statistical evaluation was performed using a computer program based on probit analysis. Statistical significance was determined using Student's t-test at a P value of <0.05.

The subject of a further data set is male Wistar rats. Description: Forced swimming test in rats. The conditions noted are these: 4 hours post-treatment. The format is in vivo. As for the experimental part: as §6, §7, §8
Where [4] appears, read: resting period, genotypes not distinguished.

For `NC(=O)C[S+]([O-])C(c1ccccc1)c1ccccc1` (stereo not drawn) [modafinil, reference compound], in data set [1] (200 mg/kg (high dose), active period, narcoleptic mice), the wake amount result is “did not bring the wake amount to that of the wild-type baseline levels”. For the same molecule, in data set [1] (narcoleptic mice), the “wake-promoting effects (magnitude)” value is recorded as “much weaker”, the “wakefulness (dose dependence)” value is listed as “dose-dependently increase” and the wake-promoting effects entry was “modest”. Also, the “dose of test compound to which the wake promoting effect of modafinil roughly corresponds” value in data set [1] (modafinil 200 mg/kg PO, resting period, genotypes not distinguished) was roughly 50 mg/kg. Further, the REM sleep entry in data set [1] (setting [4]) is listed as “did not strongly reduce REM sleep”. For the same molecule, the wake-promoting effects result in data set [2] (wild-type mice) is “modest”.

With `NC(=O)OC[C@H](N)Cc1ccccc1` [test compound, O-carbamoyl-(D)-phenylalaminol], the “mean paw withdrawal latency” value in data set [3] (0 hr (predose baseline)) was 5.17 s; in data set [3] (1 hr post-injection, P < 0.01 vs 0 hr), 6.33 s; in data set [3] (4 hr post-injection, P < 0.05 vs 0 hr), 6.06 s; in data set [3] (8 hr post-injection), 5.63 s. Moreover, the “paw withdrawal latency to a thermal stimulus (in words)” value in data set [3] (vs pre-injection (0 hr) latency) was “significantly increased”. For the same molecule, the “% of Antagonism” value in data set [3] (1 hr vs 0 hr latency) is recorded as 0.14**(22.3%; in data set [3] (4 hr vs 0 hr latency), 0.21*(17.2%); in data set [3] (8 hr vs 0 hr latency), 0.16(8.8%). In addition, the “duration of continuous wakefulness” value in data set [1] (50 mg/kg PO, resting period) was “up to 3 hours”; in data set [1] (100 mg/kg PO, resting period), no more than 4 h; in data set [1] (150 mg/kg PO, resting period), no more than 5 h; in data set [2] (50 mg/kg PO, resting period) it was “up to 3 hours”; in data set [2] (100 mg/kg PO, resting period) it was no more than 4 h; in data set [2] (150 mg/kg PO, resting period) it was no more than 5 h. Further, the wake amounts entry is listed as “brought up to the levels of wild-type mice” in data set [1] (100 mg/kg, active period, narcoleptic mice) and “brought up to the levels of wild-type mice” in data set [1] (150 mg/kg, active period, narcoleptic mice). For the same molecule, the “Non-REM and REM sleep during the period of continuous wakefulness” value in data set [1] (50, 100, 150 mg/kg PO, resting period, narcoleptic mice) was “completely suppressed”; in data set [2] (50, 100, 150 mg/kg PO, resting period, wild-type mice), “completely suppressed”. In addition, in data set [1] (50-150 mg/kg PO), the “sleep patterns of narcoleptic mice” value was “normalize”. The bouts of wakefulness entry is “significantly increased” in data set [1] (50-150 mg/kg PO, narcoleptic mice) and “significantly increased” in data set [2] (50-150 mg/kg PO, wild-type mice). In addition, the “wake-promoting effects (magnitude)” value in data set [1] (narcoleptic mice) is on record as “much pronounced”; in data set [2] (active (dark) period, wild-type mice, high baseline wakefulness), “only small effects”. In addition, the “wakefulness (dose dependence)” value in data set [1] (narcoleptic mice) was “dose-dependently increased”; in data set [2] (active period (dosed PO at ZT 14), wild-type mice) it was “dose-dependently increased”. In addition, the “amounts of non-REM and REM sleep” value in data set [1] (active period, narcoleptic mice) was “brought down to the levels of wild-type mice”. Moreover, the “sleep that occurred after the prolonged wakefulness” value in data set [1] (polygraphic assessments, resting period, genotypes not distinguished) is reported as “normal”. For the same molecule, the wake-promoting effects result in data set [1] (narcoleptic mice) and in data set [2] (wild-type mice) was “Very potent” each time. Also, in data set [1] (setting [4]), the REM sleep entry is on record as “potently reduced”. For the same molecule, the “EEG patterns after administration” value in data set [1] (resting period, wild-type and narcoleptic mice not distinguished) is on record as “no abnormal EEG patterns”. Moreover, in the data set with Male CD-1 mice (Mus musculus, multiple dosing PO, mice (twice a day for 3 days plus a dose on Day 4), read-out: ED50 (reduction in mean immobility time)), the ED50 – broadly, the dose that gives a 50% effect, or the effect in half of the subjects – was found to be 5.5 mg/kg. Moreover, the “mean duration of immobility” value is 63 s in the data set on Male CD-1 mice (multiple dosing 3 mg/kg PO, control 85 sec); 73 s with Male CD-1 mice (multiple dosing 5 mg/kg PO, control 136 sec, significant); 39 s in the data set on Male CD-1 mice (multiple dosing 8 mg/kg PO, control 114 sec, significant); 101 s in the data set with Male CD-1 mice (single dose 10 mg/kg PO, control 131 sec); 80 s with Male CD-1 mice (single dose 15 mg/kg PO, control 154 sec, significant); 30 s in the data set with Male CD-1 mice (single dose 30 mg/kg PO, control 132 sec, significant). Besides, the “mean duration of immobility” value in the data set on male Wistar rats (10 mg/kg PO, control 74 sec, not statistically significant) was 62 s; in the data set on male Wistar rats (15 mg/kg PO, control 65 sec, not statistically significant), 39 s; in the data set with male Wistar rats (30 mg/kg PO, control 38 sec, significant), 9 s.
